Data: US5830672A, “Elisa kit for the rapid determination of N-acetyltransferase (NAT2) phenotypes” (priority 1996, dated 1998)

Columns and labels:
[1] = test system: N-acetyltransferase (NAT2); details: rapid acetylators at greater risk of severe toxicity; cited from earlier work
1X-Ab = experiment: Competitive antigen ELISA, cross-reactivity of 1X-Ab; assay type: binding, rabbit; details: for % Cross-Reaction 1X-Ab: 0 = absence of inhibition or inhibition no higher than 40% at highest concentration tested (5 × 10^-3 M)
Protocol: (§1) Four mature females New Zealand white rabbits (Charles River Canada, St-Constant, Que., Canada) were used for antibody production. The protocol employed in this study was approved by the McGill University Animal Care Committee in accordance with the guidelines from the Canadian Council on Animal Care. An isotonic saline solution (0.6 mL) containing […] of BSA conjugated antigen was emulsified with 0.6 mL of a complete Freund's adjuvant. 0.5 mL of the emulsion (100 mg of antigen) was injected per rabbit intramuscularly or subcutaneously. Rabbits were subsequently boosted at intervals of three weeks with 50 mg of antigen emulsified in incomplete Freund's adjuvant. Blood was collected by venipuncture of the ear 10-14 days after boosting. Antisera were stores at 4° C. in the presence of 0.01% sodium azide. Buffers and water without additives were filtered through millipore filters and kept for 1 week. BSA, antibodies, Tween™ 20 and horse radish peroxidase conjugates were added to these buffers and water just prior to use. Urine samples were usually collected 4 hours after drinking a cup of coffee (instant or brewed with approximately 100 mg of caffeine per cup) and stored at -80° C. They were diluted 10 times with sodium phosphate buffer (620 mosm, pH 7.50) and were subsequently diluted with water to give concentrations of AAMU and 1X no higher than 3×10^-6 M in the ELISA. All the pipettings were done with an eight-channel pipette, except those of the antibody and sample solutions. Starting with the last well, 100 μL of a carbonate buffer (100 mM, pH 9.6) containing 2.5 μg mL^-1 antibodies was pipetted. […] After the initial wash, unoccupied sites were blocked by incubation for 90 min. at room temperature with 100 μL TPB containing 3% BSA. The wells were washed four times with 100 μL TPB. […] AAMU or 1X, 2×10^-4 to 2×10^-8 M) or sample in duplicate. The microplate was gently shaken with an orbital shaker at room temperature for 3-4 hours. […] To the washed plate was added 150 μL of a substrate buffer composed of citric acid (25 mM) and sodium phosphate dibasic buffer (50 mM, pH 5.0) containing 0.06% hydrogen peroxide and 0.04% o-phenylenediamine hydrochloride. […] Buffers and water without additives were filtered through millipore filters and kept for 1 week. BSA, antibodies, Tween™ 20 and horse radish peroxidase conjugates were added to these buffers and water just prior to use. Urine samples were usually collected 4 hours after drinking a cup of coffee (instant or brewed with approximately 100 mg of caffeine per cup) and stored at -80° C. They were diluted 10 times with sodium phosphate buffer (620 mosm, pH 7.50) and were subsequently diluted with water to give concentrations of AAMU and 1X no higher than 3×10^-6 M in the ELISA. All the pipettings were done with an eight-channel pipette, except those of the antibody and sample solutions. Starting with the last well, 100 μL of a carbonate buffer (100 mM, pH 9.6) containing 2.5 μg mL^-1 antibodies was pipetted. […] After the initial wash, unoccupied sites were blocked by incubation for 90 min. at room temperature with 100 μL TPB containing 3% BSA. The wells were washed four times with 100 μL TPB. […] AAMU or 1X, 2×10^-4 to 2×10^-8 M) or sample in duplicate. The microplate was gently shaken with an orbital shaker at room temperature for 3-4 hours. […] To the washed plate was added 150 μL of a substrate buffer composed of citric acid (25 mM) and sodium phosphate dibasic buffer (50 mM, pH 5.0) containing 0.06% hydrogen peroxide and 0.04% o-phenylenediamine hydrochloride. […] Each curve represents triplicate determinations in a single run. The error bars represent standard deviations. For data point with no error bars, the error bars are less the size of the symbol. […] The cross reactivities of AAMU-Ab and 1X-Ab were tested using a wide variety of caffeine metabolites and structural analogs (Table 1 below).

AAMU-Ab = experiment: Competitive antigen ELISA, cross-reactivity of AAMU-Ab; assay type: binding, rabbit; details: for % Cross-Reaction AAMU-Ab: 0 = absence of inhibition or inhibition no higher than 40% at highest concentration tested (5 × 10^-3 M)
Protocol: as §1

SMILES	correlation between toxicity and acetylator phenotype [1]	% Cross-Reaction 1X-Ab (1X-Ab)	% Cross-Reaction AAMU-Ab (AAMU-Ab)	IC50 (1X-Ab; 1X-Ab, read-out: concentration required for 50% inhibition in the competitive antigen ELISA)	IC50 (AAMU-Ab; AAMU-Ab, read-out: concentration required for 50% inhibition in the competitive antigen ELISA)
CN(C)CCN1C(=O)c2cccc3cc(N)cc(c23)C1=O [amonafide]	direct correlation between toxicity and the acetylator phenotype	–	–	–	–
Cc1nc2[nH]c(=O)[nH]c(=O)c2[nH]1 [8-Methyl Xanthine]	–	0%	0%	–	–
Nc1nc2nc[nH]c2c(=O)[nH]1 [Guanine]	–	0%	0%	–	–
Cn1c(=O)[nH]c(=O)c2[nH]cnc21 [3-Methyl Xanthine]	–	0%	0%	–	–
CC(=O)Nc1c(N)n(C)c(=O)n(C)c1=O [5-Acetamino-6-amino-1,3-dimethyluracil]	–	0%	0%	–	–
O=c1[nH]cnc2nc[nH]c12 [Hypoxanthine]	–	0%	0%	–	–
Cn1cnc2c1c(=O)[nH]c(=O)n2C [3,7-Dimethyl Xanthine (Theobromine), 3,7-Dimethyl Xanthine]	–	0%	0%	–	–
O=c1[nH]c(=O)c2[nH]cnc2[nH]1 [Xanthine]	–	0%	0%	–	–
Cn1c(=O)c2[nH]cnc2n(C)c1=O [1,3-Dimethyl Xanthine (Theophylline), 1,3-Dimethyl Xanthine]	–	0.2%	0%	–	–
CC(=O)Nc1c(N)[nH]c(=O)[nH]c1=O [5-Acetamino-6-amino-uracil]	–	0%	0.6%	–	–
O=c1[nH]c(=O)c2[nH]c(=O)[nH]c2[nH]1 [Uric acid]	–	0%	0%	–	–
Cn1c(=O)[nH]c2[nH]c(=O)n(C)c2c1=O [1,7-Dimethyluric acid]	–	0%	0%	–	–
Cn1cnc2[nH]c(=O)[nH]c(=O)c21 [7-Methyl Xanthine]	–	0%	0%	–	–
Cn1c(=O)[nH]c2ncn(C)c2c1=O [1,7-Dimethyl Xanthine (Paraxanthine), 1,7-Dimethyl Xanthine]	–	0.5%	0%	–	–
Cn1c(=O)[nH]c2nc[nH]c2c1=O [1-Methyl Xanthine (1X), 1-Methyl Xanthine]	–	100%	0%	10 µM	–
Cn1c(=O)c2c(ncn2C)n(C)c1=O [1,3,7-Trimethyl Xanthine (Caffeine), 1,3,7-Trimethyl Xanthine]	–	0%	0%	–	–
O=c1cc[nH]c(=O)[nH]1 [Uracil]	–	0%	0%	–	–
Cn1c(=O)[nH]c2[nH]c(=O)[nH]c2c1=O [1-Methyluric acid]	–	11%	0%	–	–
CC(=O)Nc1c(N)[nH]c(=O)n(C)c1=O	–	0%	100%	–	1.5 µM
